Source: publication PMC8042770, “Odorant Receptors for Detecting Flowering Plant Cues Are Functionally Conserved across Moths and Butterflies” (Molecular Biology and Evolution, 2020)

Legend:
[1] = molecular target: HarmOR67 (Helicoverpa armigera, UniProt A0A7T3KAH1); assay: Xenopus oocyte two-electrode voltage clamp, HarmOR67 + Orco; type: cell-based; details: dose response in oocytes, unit M
Procedure: (§1) In order to expand our analysis on the response properties of HarmORs, we conducted dose–response analyses for the 28 functional HarmORs. […] Six HarmORs (OR3, 22, 48, 50, 56, and 66) could not be activated by any ligand at 10^−5 M. For the other 22 HarmORs, dose–response curves were generated and EC50 values of their major ligands were calculated (fig. 2A and supplementary table S2, Supplementary Material online). The HarmOR repertoire was highly efficient in terpene detection, since the lowest EC50 values were obtained for such compounds. Many of these terpenes have been proposed to be defensive chemicals of plants. […] DMNT is also one of the oviposition deterring compounds found in larval frass of some Lepidoptera species such as S. littoralis ([Anderson et al. 1993]).
(§2) Functional characterization of individual ORs was performed by heterologous expression in Xenopus oocytes combined with a two-electrode voltage-clamp system ([Wang et al. 2010]). Briefly, the full-length gene of each OR and Orco were subcloned into the eukaryotic expression vector pT7TS. cRNAs were generated from linearized expression vectors using the mMESSAGE mMACHINE T7 kit (Ambion, Austin, TX). Then, the cRNA mixture of ORx and Orco (27.6 ng each) was injected (Nanoliter 2010, WPI Inc., Sarasota, FL) into oocytes (stage V–VII). The respective Orcos of different species were used for functional studies of OR42 orthologs except for the four butterfly species (V. tameamea, P. xuthus, D. plexippus, and P. rapae), in which we used the Orco from P. xuthus. After incubation in nutrient solution at 18 °C for 3–5 days, the response profile of each oocyte to multiple plant odorants was recorded via a two-electrode voltage clamp (OC-725C oocyte clamp, Warner Instruments, Hamden, CT) at a holding potential of −80 mV. Data were acquired by using a Digidata 1440 A and were analyzed by pCLAMP 10.2 software (Axon Instruments Inc., Union City, CA). […]

[2] = molecular target: T1, HarmOR27 (Helicoverpa armigera, UniProt A0A7T3KAG1); assay: Xenopus oocyte two-electrode voltage clamp, HarmOR27 + Orco; type: cell-based
T1 sequence (A0A7T3KAG1 1-426): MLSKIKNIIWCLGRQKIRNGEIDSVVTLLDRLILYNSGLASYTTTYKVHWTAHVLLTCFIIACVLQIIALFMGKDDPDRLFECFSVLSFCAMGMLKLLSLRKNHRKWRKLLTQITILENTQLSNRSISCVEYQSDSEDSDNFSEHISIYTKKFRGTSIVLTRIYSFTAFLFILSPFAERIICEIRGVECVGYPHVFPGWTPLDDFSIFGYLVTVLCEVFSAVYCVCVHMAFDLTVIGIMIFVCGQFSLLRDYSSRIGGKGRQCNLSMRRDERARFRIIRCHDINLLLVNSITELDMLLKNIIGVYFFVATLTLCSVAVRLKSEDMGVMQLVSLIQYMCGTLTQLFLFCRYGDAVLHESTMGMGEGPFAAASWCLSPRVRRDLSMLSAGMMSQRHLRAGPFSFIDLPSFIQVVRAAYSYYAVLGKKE
Procedure: as §1
(§3) Functional characterization of individual ORs was performed by heterologous expression in Xenopus oocytes combined with a two-electrode voltage-clamp system ([Wang et al. 2010]). Briefly, the full-length gene of each OR and Orco were subcloned into the eukaryotic expression vector pT7TS. cRNAs were generated from linearized expression vectors using the mMESSAGE mMACHINE T7 kit (Ambion, Austin, TX). Then, the cRNA mixture of ORx and Orco (27.6 ng each) was injected (Nanoliter 2010, WPI Inc., Sarasota, FL) into oocytes (stage V–VII). The respective Orcos of different species were used for functional studies of OR42 orthologs except for the four butterfly species (V. tameamea, P. xuthus, D. plexippus, and P. rapae), in which we used the Orco from P. xuthus. After incubation in nutrient solution at 18 °C for 3–5 days, the response profile of each oocyte to multiple plant odorants was recorded via a two-electrode voltage clamp (OC-725C oocyte clamp, Warner Instruments, Hamden, CT) at a holding potential of −80 mV. Data were acquired by using a Digidata 1440 A and were analyzed by pCLAMP 10.2 software (Axon Instruments Inc., Union City, CA).
(§4) Stock solutions of each odorant were prepared at 1 M using DMSO as a solvent, and each odorant was diluted in 1× Ringer’s solution to the indicated concentrations for electrophysiological recording. For functional screening of each HarmOR, a panel of 67 odorants belonging to three types of chemical classes: terpenes, aromatics, and aliphatics (short-chain fatty acid) were used (supplementary table S1, Supplementary Material online). For functional studies of OR42 orthologs from different species, six odorants including PAA, benzaldehyde, (E)-2-hexen-1-al, cinnamaldehyde, 2-phenylethanol, and heptanal were used.

[3] = molecular target: T2, HarmOR43 (Helicoverpa armigera, UniProt A0A7T3KAF8); assay: Xenopus oocyte two-electrode voltage clamp, HarmOR43 + Orco; type: cell-based; details: dose response in oocytes, unit M
T2 sequence (A0A7T3KAF8 1-415): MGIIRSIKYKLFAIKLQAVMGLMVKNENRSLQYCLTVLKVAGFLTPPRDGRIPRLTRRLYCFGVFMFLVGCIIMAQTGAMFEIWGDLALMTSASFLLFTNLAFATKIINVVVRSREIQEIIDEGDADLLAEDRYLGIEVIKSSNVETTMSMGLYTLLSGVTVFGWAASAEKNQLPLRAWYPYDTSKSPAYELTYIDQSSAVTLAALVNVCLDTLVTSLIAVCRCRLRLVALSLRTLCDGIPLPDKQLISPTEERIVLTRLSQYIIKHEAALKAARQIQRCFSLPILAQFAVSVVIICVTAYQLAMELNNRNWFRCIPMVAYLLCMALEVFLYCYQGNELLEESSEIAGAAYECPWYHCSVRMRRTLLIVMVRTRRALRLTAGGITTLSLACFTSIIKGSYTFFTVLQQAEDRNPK
Procedure: as §1, §2

[4] = molecular target: HarmOR31 (Helicoverpa armigera, UniProt A0A7T3N2E9); assay: Xenopus oocyte two-electrode voltage clamp, HarmOR31 + Orco; type: cell-based
HarmOR31, sequence (A0A7T3N2E9 entry or part of it): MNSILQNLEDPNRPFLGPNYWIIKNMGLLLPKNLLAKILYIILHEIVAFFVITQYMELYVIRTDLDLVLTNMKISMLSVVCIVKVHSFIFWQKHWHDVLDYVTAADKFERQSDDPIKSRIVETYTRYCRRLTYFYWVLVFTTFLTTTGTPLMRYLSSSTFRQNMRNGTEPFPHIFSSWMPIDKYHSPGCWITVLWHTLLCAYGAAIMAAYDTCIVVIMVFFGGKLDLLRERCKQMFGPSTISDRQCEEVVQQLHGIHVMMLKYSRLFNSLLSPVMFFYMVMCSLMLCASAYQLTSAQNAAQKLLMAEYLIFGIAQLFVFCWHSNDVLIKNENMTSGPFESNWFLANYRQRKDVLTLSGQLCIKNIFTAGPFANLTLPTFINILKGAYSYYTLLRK
Description: In order to expand our analysis on the response properties of HarmORs, we conducted dose–response analyses for the 28 functional HarmORs. […] Many of these terpenes have been proposed to be defensive chemicals of plants.
Briefly, the full-length gene of each OR and Orco were subcloned into the eukaryotic expression vector pT7TS. cRNAs were generated from linearized expression vectors using the mMESSAGE mMACHINE T7 kit (Ambion, Austin, TX). […] The respective Orcos of different species were used for functional studies of OR42 orthologs except for the four butterfly species (V. tameamea, P. xuthus, D. plexippus, and P. rapae), in which we used the Orco from P. xuthus.
as §4

[5] = molecular target: T3, HarmOR19 (Helicoverpa armigera, UniProt A0A7T3N0J7); assay: Xenopus oocyte two-electrode voltage clamp, HarmOR19 + Orco; type: cell-based; details: dose response in oocytes, unit M
T3 sequence (A0A7T3N0J7 1-402): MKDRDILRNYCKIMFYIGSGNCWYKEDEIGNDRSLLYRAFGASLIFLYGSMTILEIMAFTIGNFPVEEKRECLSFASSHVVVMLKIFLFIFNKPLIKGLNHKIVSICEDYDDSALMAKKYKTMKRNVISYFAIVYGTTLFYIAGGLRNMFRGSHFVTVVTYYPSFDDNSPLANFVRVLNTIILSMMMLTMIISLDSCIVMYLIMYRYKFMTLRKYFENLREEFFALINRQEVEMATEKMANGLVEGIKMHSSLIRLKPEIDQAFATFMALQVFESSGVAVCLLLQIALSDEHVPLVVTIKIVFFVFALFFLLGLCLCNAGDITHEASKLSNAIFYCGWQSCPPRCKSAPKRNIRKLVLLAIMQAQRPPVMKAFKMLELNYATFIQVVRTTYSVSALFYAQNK
Procedure: as §1, §2

[6] = molecular target: HarmOR42 (Helicoverpa armigera, UniProt A0A7T3KAF6); assay: Xenopus oocyte two-electrode voltage clamp, HarmOR42 + Orco; type: cell-based; details: 67 odorants at 10^−4 M
HarmOR42, sequence (A0A7T3KAF6 entry or part of it): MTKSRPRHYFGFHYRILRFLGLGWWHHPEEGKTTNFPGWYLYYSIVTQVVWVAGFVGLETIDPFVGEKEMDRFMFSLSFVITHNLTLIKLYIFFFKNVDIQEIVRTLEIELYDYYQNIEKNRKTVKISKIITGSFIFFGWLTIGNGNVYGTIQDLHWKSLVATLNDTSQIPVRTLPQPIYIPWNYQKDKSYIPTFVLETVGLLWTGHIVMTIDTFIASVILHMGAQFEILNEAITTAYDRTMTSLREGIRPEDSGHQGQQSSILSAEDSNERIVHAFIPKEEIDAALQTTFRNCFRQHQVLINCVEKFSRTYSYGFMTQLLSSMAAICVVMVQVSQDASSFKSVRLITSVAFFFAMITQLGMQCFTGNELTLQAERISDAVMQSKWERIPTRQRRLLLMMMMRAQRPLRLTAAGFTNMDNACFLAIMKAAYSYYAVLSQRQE
Description: In preliminary screening, we used a high dosage (10^−4 M) of odorants. […] Most functional ORs responded robustly to multiple odorants. The strongest response (up to ∼6,000 nanoampere, nA) we detected was that of HarmOR42 toward the aromatic compound PAA. Further, the response profiles of the 28 HarmORs appeared to be highly differentiated, with no apparent overlap in their tuning spectra (with the exception of HarmOR12 and 36) according to functional cluster analysis (fig. 1A).
as §1, §3, §4

[7] = system: H. armigera moth antennae; assay: Electroantennography (EAG), wild-type vs HarmOR42 knock-out moths; type: in vivo, Helicoverpa armigera; details: single odorants, 1 μg
Description: We next conducted a loss-of-function study by generating a HarmOR42-lacking H. armigera strain by CRISPR/Cas9 targeting the first coding exon. Homozygous mutants were obtained with a large segment deletion of 203 bp and a 6-bp nonhomologous insertion in the genome (fig. 6B), introducing a premature stop codon in the coding sequence. […] The most likely hypothesis is that HarmOR42 is not the major receptor for sensing this compound in H. armigera. As a control, we tested the response of male moths to the sex pheromone component Z11-16: Ald that is not a ligand of HarmOR42. As expected, we observed no difference between the EAG responses of mutant and wild-type moths to this compound.
The antennae of 2- to 3-day-old virgin male and female moths were cut at the base of the flagellum. After removing the tip, one antenna was inserted between two glass electrodes filled with 0.1 M KCl solution. In each test, a 10-μl solution of each odorant was added onto a piece of filter paper (0.5 cm × 0.5 cm) and then inserted into a Pasteur pipette. About 100 ng/μl stock solutions of individual odorants and different doses of the mixture IAC were prepared with paraffin oil. A continuous airflow of 30 ml/s was produced by a stimulus controller (CS-55, Syntech, Kirchzarten, Germany). Odor stimulation was controlled by a puff of purified air (0.2 s at 10 ml/s airflow) from the CS-55. EAG signals were amplified with a 10× AC/DC headstage preamplifier (Syntech) and further acquired with an Intelligent Data Acquisition Controller (IDAC-4-USB, Syntech) ([Cao et al. 2016]). The signals were recorded, monitored, and analyzed using Syntech EAG-software (Syntech, Germany). The EAG response values for each compound were calculated by subtracting the value of the same antennae corresponding to a solvent blank of paraffin oil.

HarmOR67, sequence (A0A7T3KAH1 entry or part of it): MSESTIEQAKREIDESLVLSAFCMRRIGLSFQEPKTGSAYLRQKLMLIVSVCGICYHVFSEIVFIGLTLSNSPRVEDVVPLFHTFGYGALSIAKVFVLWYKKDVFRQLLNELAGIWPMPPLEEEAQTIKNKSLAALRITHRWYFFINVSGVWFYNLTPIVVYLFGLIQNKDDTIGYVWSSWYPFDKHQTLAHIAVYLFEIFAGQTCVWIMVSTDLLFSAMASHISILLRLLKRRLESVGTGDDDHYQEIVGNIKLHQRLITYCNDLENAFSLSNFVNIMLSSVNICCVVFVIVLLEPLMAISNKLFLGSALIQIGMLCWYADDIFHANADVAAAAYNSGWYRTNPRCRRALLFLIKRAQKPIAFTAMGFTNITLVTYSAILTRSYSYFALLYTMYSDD

For `CCCCCCCO` [1-Heptanol], the EC50 [1] was 218 µM.

`COC(=O)c1ccccc1` [Methyl benzoate] gave an EC50 [2] of 13.1 µM and an EC50 [3] of 15.5 µM.

Compound `CCOC(=O)c1ccccc1` [Ethyl benzoate] has an EC50 [4] of 13.2 µM, an EC50 [2] of 68.7 µM and an EC50 [5] of 60.2 µM.

With `CCCCOC(=O)c1ccccc1O` [Butyl salicylate] the “response of HarmOR27” value ([2]; odorant 10^−4 M) was “maximal response”, the “response of HarmOR27” value ([2]; odorant 10^−5 M) was “failed to evoke any current” and the EC50 [5] was 402 µM.

`COC(=O)c1ccccc1O` [Methyl salicylate] was tested, and the EC50 [2] was 15.6 µM and the EC50 [3] was 15.8 µM.

For `CCCCCCC=O` [Heptanal], the EC50 [1] was 302 µM, the “ligand tuning of HarmOR42” value [6] was “minor ligands” and the “EAG response of HarmOR42 knock-out mutants compared with wild-type moths” value [7] was “significantly decreased”.
